Experimental data taken from ChEMBL document CHEMBL4613224, “Synthesis, in-vitro antiprotozoal activity and molecular docking study of isothiocyanate derivatives” (Bioorg Med Chem, 2020).
Active and inactive are the calls of the source. No cut-off for these calls is given here.

Tests used:
[1] = Selectivity index, ratio of IC50 for rat L6 cells assessed as reduction in cell viability measured after 72 hrs by Alamar blue based inverted microscopy analysis to IC50 for Leishmania donovani MHOM-ET-67/L82 axenic amastigotes assessed as parasite growth inhibition measured after 72 hrs by Alamar blue based inverted microscopy analysis; type: toxicity; details: L6 cells, read-out: Ratio IC50
[2] = system: Plasmodium falciparum; test: Antiplasmodial activity against Plasmodium falciparum NF54 measured after 24 hrs in presence of [3H] hypoxanthine by liquid scintillation counter analysis; type: functional, organism-based
[3] = system: Trypanosoma brucei rhodesiense; test: Antitrypanosomal activity against bloodstream Trypanosoma brucei rhodesiense STIB900 assessed as parasite growth inhibition measured after 70 hrs by Alamar blue assay; type: functional, organism-based; details: STIB900, 70 h
[4] = system: Leishmania donovani; test: Antileishmanial activity against Leishmania donovani MHOM-ET-67/L82 axenic amastigotes assessed as parasite growth inhibition at 2 to 10 ug/ml measured after 72 hrs by Alamar blue based inverted microscopy analysis relative to control; type: functional
[5] = system: Trypanosoma cruzi; test: Antitrypanosomal activity against Trypanosoma cruzi Tulahuen C4 trypomastigotes infected in rat L6 cells assessed as parasite growth inhibition at 2 ug/ml measured after 96 hrs by inverted microscopy analysis relative to control; type: functional
[6] = Selectivity index, ratio of IC50 for rat L6 cells assessed as reduction in cell viability measured after 72 hrs by Alamar blue based inverted microscopy analysis to IC50 for Plasmodium falciparum NF54 measured after 24 hrs in presence of [3H] hypoxanthine by liquid scintillation counter analysis; type: toxicity; details: read-out: Ratio IC50
[7] = system: Trypanosoma brucei rhodesiense; test: Antitrypanosomal activity against bloodstream Trypanosoma brucei rhodesiense STIB900 assessed as parasite growth inhibition at 2 ug/ml measured after 70 hrs by Alamar blue assay relative to control; type: functional; details: STIB900, 70 h
[8] = system: L6; test: Cytotoxicity against rat L6 cells assessed as reduction in cell viability measured after 72 hrs by Alamar blue based inverted microscopy analysis; details: L6, 72 h, read-out: IC50
[9] = Selectivity index, ratio of IC50 for rat L6 cells assessed as reduction in cell viability measured after 72 hrs by Alamar blue based inverted microscopy analysis to IC50 for bloodstream Trypanosoma brucei rhodesiense STIB900 assessed as parasite growth inhibition measured after 70 hrs by Alamar blue assay; type: toxicity; details: read-out: Ratio IC50
[10] = system: Leishmania donovani; test: Potency index, ratio of miltefosine IC50 to test compound IC50 for antileishmanial activity against Leishmania donovani MHOM-ET-67/L82 axenic amastigotes assessed as parasite growth inhibition measured after 72 hrs by Alamar blue based inverted microscopy analysis; type: functional
[11] = system: Leishmania donovani; test: Antileishmanial activity against Leishmania donovani MHOM-ET-67/L82 axenic amastigotes assessed as parasite growth inhibition measured after 72 hrs by Alamar blue based inverted microscopy analysis; type: functional, organism-based; details: MHOM-ET-67/L82, 72 h
[12] = system: Plasmodium falciparum; test: Antiplasmodial activity against Plasmodium falciparum K1 assessed as reduction in parasite growth by [3H]-hypoxanthine incorporation assay; type: functional, organism-based

IC50 [3] | SMILES | selectivity ratio at 72 h [1] | IC50 [2] | inhibition (INH) [4] | inhibition [5] | selectivity ratio at 72 h [6] | inhibition at 2 µg/mL [7] | IC50 [8] | selectivity ratio at 72 h [9] | Ratio IC50 [10] | IC50 [11] | IC50 [12]
1.1 µM | C[C@@H](CCCN=C=S)[C@H]1CC[C@H]2[C@@H]3CC[C@@H]4C[C@H](O)CC[C@]4(C)[C@H]3C[C@H](O)[C@]12C | 9.9 | 3.4 µM | >90% | inactive | 1.1 | > 50% | 3.6 µM | 3.3 | 2 | 0.4 µM | –
– | COc1ccc([C@H](O)[C@H]2c3c(cc4c(c3OC)OCO4)CCN2C)c(CO)c1OC | – | – | – | – | – | – | – | – | – | – | 8 µM
